Results reported in ChEMBL document CHEMBL1201862, “PubChem BioAssay data set” (2004).
Activity calls are given as the source filed them.

Legend:
[1] = test system: Vero; experiment: cells; assay type: functional, cell-based; details: Chlorocebus sabaeus
[2] = target: Delta-type opioid receptor (Homo sapiens, UniProt P41143); experiment: Counterscreen for agonists of heterodimerization of the mu 1 (OPRM1) and delta 1 (OPRD1) opioid receptors: Luminescence-based cell-based high throughput dose response assay to identify agonists of OPRD1 homodimerization. [Related pubchem assays (depositor defined):AID504326, AID504355, AID504692, AID504904, AID504905]; assay type: functional
[3] = target: Mu-type opioid receptor (Homo sapiens, UniProt P35372); experiment: Counterscreen for agonists of heterodimerization of the mu 1 (OPRM1) and delta 1 (OPRD1) opioid receptors: Luminescence-based cell-based high throughput dose response assay to identify agonists of OPRM1 homodimerization.; assay type: functional;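 also: U2OS cells expressing OPRM1 and beta-arrestin as split beta-galactosidase partners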
[4] = target: 5-hydroxytryptamine receptor 5A (Homo sapiens, UniProt P47898); experiment: Counterscreen for agonists of OPRM1-OPRD1 heterodimerization: luminescence-based cell-based high throughput dose response assay to identify agonists of 5-hydroxytryptamine (serotonin) 5A receptor (HTR5A). [Related pubchem assays (depositor defined):AID504326, AID504355, AID504692, AID504904, AID504905]; assay type: functional
[5] = cytotoxicity in MIN6 insulinoma cells, dose response, cytotoxicity control, cell-based, mouse insulinoma (AID 2122); assay type: functional;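 also: confirmatory high-throughput counterscreen run to flag cytotoxic compounds; mouse MIN-6 beta cells carrying an insulin promoter eGFP reporter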
[6] = insulin promoter down-regulators in MIN6 cells, imaging, high-content screening, mouse beta cells (AID 1628); assay type: functional
[7] = test system: HEK293; experiment: cells; details: Homo sapiens
[8] = test system: HEK293; experiment: cells; details: Homo sapiens; remark: listed apart in the source
[9] = target: T1, Short transient receptor potential channel 4 (Mus musculus, UniProt Q9QUQ5); experiment: mouse TRPC4 channel activators, dose response, cell-based, HEK293 TRPC4/mu-opioid, Fluo-4 calcium (AID 434937); assay type: functional
T1 sequence (Q9QUQ5 whole entry): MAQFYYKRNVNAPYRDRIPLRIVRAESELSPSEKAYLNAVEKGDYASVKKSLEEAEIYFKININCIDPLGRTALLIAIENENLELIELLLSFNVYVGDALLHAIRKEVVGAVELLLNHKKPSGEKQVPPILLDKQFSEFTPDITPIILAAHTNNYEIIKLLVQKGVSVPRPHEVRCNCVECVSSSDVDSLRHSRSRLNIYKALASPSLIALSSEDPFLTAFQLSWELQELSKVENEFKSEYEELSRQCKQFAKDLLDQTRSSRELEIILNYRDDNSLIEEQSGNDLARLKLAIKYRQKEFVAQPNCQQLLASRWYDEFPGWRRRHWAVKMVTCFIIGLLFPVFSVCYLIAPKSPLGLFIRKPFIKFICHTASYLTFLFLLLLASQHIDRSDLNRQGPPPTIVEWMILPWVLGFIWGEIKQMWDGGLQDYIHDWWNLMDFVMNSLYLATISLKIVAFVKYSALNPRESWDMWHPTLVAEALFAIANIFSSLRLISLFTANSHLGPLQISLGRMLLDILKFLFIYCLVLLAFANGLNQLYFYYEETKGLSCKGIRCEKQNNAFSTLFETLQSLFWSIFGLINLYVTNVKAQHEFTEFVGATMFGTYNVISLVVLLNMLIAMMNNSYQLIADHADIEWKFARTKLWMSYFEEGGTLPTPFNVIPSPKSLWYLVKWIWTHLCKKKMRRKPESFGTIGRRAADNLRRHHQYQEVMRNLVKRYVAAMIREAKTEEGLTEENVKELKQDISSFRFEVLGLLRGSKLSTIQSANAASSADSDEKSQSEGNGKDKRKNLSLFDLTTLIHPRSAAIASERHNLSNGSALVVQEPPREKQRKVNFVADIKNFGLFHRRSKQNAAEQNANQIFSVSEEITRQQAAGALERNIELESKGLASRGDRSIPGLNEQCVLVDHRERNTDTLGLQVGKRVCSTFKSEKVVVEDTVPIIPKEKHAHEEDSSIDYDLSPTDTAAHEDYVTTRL

Mu-type opioid receptor, sequence (P35372 whole entry): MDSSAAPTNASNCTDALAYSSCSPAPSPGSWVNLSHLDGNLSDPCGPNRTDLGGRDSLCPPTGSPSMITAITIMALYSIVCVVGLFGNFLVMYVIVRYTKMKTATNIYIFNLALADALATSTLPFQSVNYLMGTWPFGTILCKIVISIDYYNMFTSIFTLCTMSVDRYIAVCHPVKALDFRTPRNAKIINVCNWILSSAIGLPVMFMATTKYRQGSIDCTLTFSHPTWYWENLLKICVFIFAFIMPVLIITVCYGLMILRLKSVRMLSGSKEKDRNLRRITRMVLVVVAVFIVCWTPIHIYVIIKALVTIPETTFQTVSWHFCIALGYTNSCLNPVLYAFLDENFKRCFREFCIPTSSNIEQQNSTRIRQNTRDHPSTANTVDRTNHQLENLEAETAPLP
5-hydroxytryptamine receptor 5A, sequence (P47898 whole entry): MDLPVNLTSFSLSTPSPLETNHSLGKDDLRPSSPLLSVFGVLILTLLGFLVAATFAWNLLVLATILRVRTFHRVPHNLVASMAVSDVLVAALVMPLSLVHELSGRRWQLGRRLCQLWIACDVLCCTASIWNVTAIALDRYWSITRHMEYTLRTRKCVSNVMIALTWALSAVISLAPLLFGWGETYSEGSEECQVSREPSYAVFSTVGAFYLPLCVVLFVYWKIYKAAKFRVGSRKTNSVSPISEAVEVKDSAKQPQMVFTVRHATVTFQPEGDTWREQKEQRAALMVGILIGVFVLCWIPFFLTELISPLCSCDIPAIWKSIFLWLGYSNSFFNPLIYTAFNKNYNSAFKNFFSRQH
Delta-type opioid receptor, sequence (P41143 whole entry): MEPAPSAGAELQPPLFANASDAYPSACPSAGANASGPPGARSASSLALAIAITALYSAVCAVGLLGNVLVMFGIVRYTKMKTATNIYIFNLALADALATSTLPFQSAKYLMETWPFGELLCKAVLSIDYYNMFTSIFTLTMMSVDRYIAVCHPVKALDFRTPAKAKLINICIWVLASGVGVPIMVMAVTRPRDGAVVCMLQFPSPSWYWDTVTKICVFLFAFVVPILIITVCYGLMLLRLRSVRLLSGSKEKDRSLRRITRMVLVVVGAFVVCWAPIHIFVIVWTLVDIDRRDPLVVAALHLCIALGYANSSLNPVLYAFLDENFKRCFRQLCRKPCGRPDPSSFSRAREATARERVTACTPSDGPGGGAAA

Row | SMILES | EC50 [2] | EC50 [3] | EC50 [4] | also measured
1 | Oc1nc(SCc2nc(O)c3cnn(-c4ccccc4)c3n2)nc2ccccc12 |  |  |  | IC50 [1]: 1.08 µM (active)
2 | COc1cc(NC(=O)c2cccc(C)c2)ccc1NC(=O)c1cc2ccccc2o1 | > 92.4 µM (inactive) | > 92.4 µM (inactive) | > 92.4 µM (inactive) | 
3 | Cc1cc(NC(=O)CCc2ccc(S(=O)(=O)N3CCOCC3)cc2)n(-c2ccccc2)n1 |  |  |  | IC50 [5]: 1.53 µM (active); IC50 [6]: 2 µM (active)
4 | CC(C)(C)N1C(=O)[C@H]2[C@@H](c3ccc(Br)cc3)N3C(=O)N(c4ccccc4)C(=O)[C@@]3(Cc3ccccc3)[C@H]2C1=O |  |  |  | EC50 [7]: > 59.6 µM (inactive); EC50 [8]: > 59.6 µM (inactive)
5 | CN(C)C(CNC(=O)C1CC(=O)N(Cc2ccccc2)C1)c1ccccc1 (configuration not stated) | > 92.5 µM (inactive) | > 92.5 µM (inactive) | > 92.5 µM (inactive) | EC50 [9]: 1.33 µM (active)
